Results on 22 molecules are retold here after patent publication US9365522B2, “Pyrazole amide derivative” (AMGEN INC., priority 2015, dated 2016).

The assay concerns the target T1, ligand binding domain of human ROR gamma (Homo sapiens, UniProt P51449).
T1 construct: NM_001001523; expressed in transfected cells; host or cells: HEK293T
T1 sequence (P51449 247-497 isoform P51449-2): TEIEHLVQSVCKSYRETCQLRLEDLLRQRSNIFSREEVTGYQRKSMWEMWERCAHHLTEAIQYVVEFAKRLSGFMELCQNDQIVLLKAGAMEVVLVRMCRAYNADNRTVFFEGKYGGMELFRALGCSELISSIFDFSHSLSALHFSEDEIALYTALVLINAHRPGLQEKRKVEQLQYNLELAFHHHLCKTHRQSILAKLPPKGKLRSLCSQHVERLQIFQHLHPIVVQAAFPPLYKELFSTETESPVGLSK
The assay is described as follows: ROR gamma reporter gene assay (GAL4-RORγ LBD luciferase, Dual-Glo). Type of assay: cell-based. The conditions noted are these: HEK293T cells transfected with pM-ROR gamma, 8 concentrations 3.5 nM to 10.5 μM, 24 h incubation; read-out: result (pIC50, inhibition of RORγ transcriptional activity) (converted). In short, it runs like this: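 Transient GAL4-RORγ LBD (aa 247-497) / 5×UAS-luc / pRL-CMV cotransfection in HEK293T, charcoal-stripped 10% FBS. 8-pt dose, 3.5 nM–10.5 μM, 0.075% DMSO final. 24 h, 37 °C, 5% CO2. Dual-Glo firefly/renilla readout; pIC50 from curve fit.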
Background: In a reporter assay the amount or activity of a reporter protein is the signal.
Regarding `CC(C)(C)O[C@H]1C[C@@H](N(CC(=O)c2c(Cl)cncc2Cl)C(=O)c2cnn([C@H]3CC[C@H](C(=O)O)CC3)c2C(F)(F)F)C1` [Example 155, trans-4-(4-((2-(3,5-dichloropyridin-4-yl)-2-oxoethyl)-(3-((2-methylpropan-2-yl)oxy)cyclobutyl)carbamoyl)-5-(trifluoromethyl)pyrazol-1-yl)cyclohexane-1-carboxylic acid], the IC50 is 5.13e+06 pM.

On to `CC[C@]1(C(=O)O)CC[C@H](n2ncc(C(=O)N(CC(=O)c3c(Cl)cncc3Cl)Cc3cc(F)cc(F)c3)c2C(F)(F)F)CC1` [Example 156, trans-4-(4-((2-(3,5-dichloropyridin-4-yl)-2-oxoethyl)-((3,5-difluorophenyl)methyl)carbamoyl)-5-(trifluoromethyl)pyrazol-1-yl)-1-ethylcyclohexane-1-carboxylic acid], for which the IC50 was 1.02e+06 pM. As for `O=C1CC[C@@H](CN(CC(=O)c2c(Cl)cncc2Cl)C(=O)c2cnn([C@H]3CC[C@H](C(=O)O)CC3)c2C(F)(F)F)N1` [Example 157, trans-4-(4-((2-(3,5-dichloropyridin-4-yl)-2-oxoethyl)-(((2S)-5-oxopyrrolidin-2-yl)methyl)carbamoyl)-5-(trifluoromethyl)pyrazol-1-yl)cyclohexane-1-carboxylic acid], the IC50 was greater than 1e+07 pM.

As to `O=C1CC[C@H](CN(CC(=O)c2c(Cl)cncc2Cl)C(=O)c2cnn([C@H]3CC[C@H](C(=O)O)CC3)c2C(F)(F)F)N1` [Example 158, trans-4-(4-((2-(3,5-dichloropyridin-4-yl)-2-oxoethyl)-(((2R)-5-oxopyrrolidin-2-yl)methyl)carbamoyl)-5-(trifluoromethyl)pyrazol-1-yl)cyclohexane-1-carboxylic acid], the IC50 is greater than 1e+07 pM. The figure for `O=C(CN(Cc1cc(F)cc(F)c1)C(=O)c1cnn([C@H]2CC[C@H](C(=O)O)CC2)c1CO)c1c(Cl)cncc1Cl` [Example 159, trans-4-(4-((2-(3,5-dichloropyridin-4-yl)-2-oxoethyl)-((3,5-difluorophenyl)methyl)carbamoyl)-5-(hydroxymethyl)pyrazol-1-yl)cyclohexane-1-carboxylic acid] is greater than 1e+07 pM; for `CC12CCC(CN(CC(=O)c3c(Cl)cncc3Cl)C(=O)c3cnn([C@H]4CC[C@H](C(=O)O)CC4)c3C(F)(F)F)(CC1)O2` [Example 160, trans-4-(4-((2-(3,5-dichloropyridin-4-yl)-2-oxoethyl)-((1-methyl-7-oxabicyclo[2.2.1]heptan-4-yl)methyl)carbamoyl)-5-(trifluoromethyl)pyrazol-1-yl)cyclohexane-1-carboxylic acid] it is 24500 pM; for `O=C(CN(C(=O)c1cnn([C@H]2CC[C@H](C(=O)O)CC2)c1C(F)(F)F)[C@H]1C[C@@H]1c1ccccc1)c1c(Cl)cncc1Cl` [Example 161, trans-4-(4-((2-(3,5-dichloropyridin-4-yl)-2-oxoethyl)-((1S,2R)-2-phenylcyclopropyl)carbamoyl)-5-(trifluoromethyl)pyrazol-1-yl)cyclohexane-1-carboxylic acid] it is 2.19e+06 pM. To `CC(C)c1c(C(=O)N(CC(=O)c2c(Cl)cncc2Cl)Cc2cc(F)cc(F)c2)cnn1[C@H]1CC[C@H](C(=O)O)CC1` [Example 162, trans-4-(4-((2-(3,5-dichloropyridin-4-yl)-2-oxoethyl)-((3,5-difluorophenyl)methyl)carbamoyl)-5-propan-2-ylpyrazol-1-yl)cyclohexane-1-carboxylic acid] belongs 1.02e+06 pM; to `NCc1c(C(=O)N(CC(=O)c2c(Cl)cncc2Cl)Cc2cc(F)cc(F)c2)cnn1[C@H]1CC[C@H](C(=O)O)CC1` [Example 163, trans-4-(5-(aminomethyl)-4-((2-(3,5-dichloropyridin-4-yl)-2-oxoethyl)-((3,5-difluorophenyl)methyl)carbamoyl)pyrazol-1-yl)cyclohexane-1-carboxylic acid], greater than 1e+07 pM. To `Cc1c(C(=O)N(CC(=O)c2c(Cl)cncc2Cl)Cc2cc(F)cc(F)c2)cnn1[C@H]1CC[C@H](C(=O)O)CC1` [Example 164, trans-4-(4-((2-(3,5-dichloropyridin-4-yl)-2-oxoethyl)-((3,5-difluorophenyl)methyl)carbamoyl)-5-methylpyrazol-1-yl)cyclohexane-1-carboxylic acid] belongs 1.17e+06 pM; to `O=C(CN(Cc1nc(Cl)cs1)C(=O)c1cnn([C@H]2CC[C@H](C(=O)O)CC2)c1C(F)(F)F)c1c(Cl)cncc1Cl` [Example 165, trans-4-(4-((4-chloro-1,3-thiazol-2-yl)methyl-(2-(3,5-dichloropyridin-4-yl)-2-oxoethyl)carbamoyl)-5-(trifluoromethyl)pyrazol-1-yl)cyclohexane-1-carboxylic acid], 1.17e+06 pM.

`O=C(CN(Cc1ccc(F)cc1)C(=O)c1cnn(C23CCC(C(=O)O)(CC2)CC3)c1C(F)(F)F)c1c(Cl)cncc1Cl` [Example 166, 4-(4-((2-(3,5-dichloropyridin-4-yl)-2-oxoethyl)-((4-fluorophenyl)methyl)carbamoyl)-5-(trifluoromethyl)pyrazol-1-yl)bicyclo[2.2.2]octane-1-carboxylic acid]: the IC50 was 15500 pM. The figure for `O=C(CN(Cc1csc(Cl)n1)C(=O)c1cnn([C@H]2CC[C@H](C(=O)O)CC2)c1C(F)(F)F)c1c(Cl)cncc1Cl` [Example 167, trans-4-(4-((2-chloro-1,3-thiazol-4-yl)methyl-(2-(3,5-dichloropyridin-4-yl)-2-oxoethyl)carbamoyl)-5-(trifluoromethyl)pyrazol-1-yl)cyclohexane-1-carboxylic acid] is 331000 pM.

On to `O=C(CN(Cc1ncc(Cl)s1)C(=O)c1cnn([C@H]2CC[C@H](C(=O)O)CC2)c1C(F)(F)F)c1c(Cl)cncc1Cl` [Example 168, trans-4-(4-((5-chloro-1,3-thiazol-2-yl)methyl-(2-(3,5-dichloropyridin-4-yl)-2-oxoethyl)carbamoyl)-5-(trifluoromethyl)pyrazol-1-yl)cyclohexane-1-carboxylic acid], for which the IC50 was 148000 pM. To `CC1(C)CCC(N(CC(=O)c2c(Cl)cncc2Cl)C(=O)c2cnn([C@H]3CC[C@H](C(=O)O)CC3)c2C(F)(F)F)CC1` [Example 169, trans-4-(4-((2-(3,5-dichloropyridin-4-yl)-2-oxoethyl)-(4,4-dimethylcyclohexyl)carbamoyl)-5-(trifluoromethyl)pyrazol-1-yl)cyclohexane-1-carboxylic acid] belongs 40700 pM; to `N#Cc1cccc(CN(CC(=O)c2c(Cl)cncc2Cl)C(=O)c2cnn([C@H]3CC[C@H](C(=O)O)CC3)c2C(F)(F)F)c1` [Example 170, trans-4-(4-((3-cyanophenyl)methyl-(2-(3,5-dichloropyridin-4-yl)-2-oxoethyl)carbamoyl)-5-(trifluoromethyl)pyrazol-1-yl)cyclohexane-1-carboxylic acid], 178000 pM. To `N#Cc1ccc(CN(CC(=O)c2c(Cl)cncc2Cl)C(=O)c2cnn([C@H]3CC[C@H](C(=O)O)CC3)c2C(F)(F)F)cc1` [Example 171, trans-4-(4-((4-cyanophenyl)methyl-(2-(3,5-dichloropyridin-4-yl)-2-oxoethyl)carbamoyl)-5-(trifluoromethyl)pyrazol-1-yl)cyclohexane-1-carboxylic acid] belongs 166000 pM; to `CC(=O)N1CC(N(CC(=O)c2c(Cl)cncc2Cl)C(=O)c2cnn([C@H]3CC[C@H](C(=O)O)CC3)c2C(F)(F)F)C1` [Example 172, trans-4-(4-((1-acetylazetidin-3-yl)-(2-(3,5-dichloropyridin-4-yl)-2-oxoethyl)carbamoyl)-5-(trifluoromethyl)pyrazol-1-yl)cyclohexane-1-carboxylic acid], greater than 1e+07 pM; to `CC(C)(C)C(=O)N1CC(N(CC(=O)c2c(Cl)cncc2Cl)C(=O)c2cnn([C@H]3CC[C@H](C(=O)O)CC3)c2C(F)(F)F)C1` [Example 173, trans-4-(4-((2-(3,5-dichloropyridin-4-yl)-2-oxoethyl)-(1-(2,2-dimethylpropanoyl)azetidin-3-yl)carbamoyl)-5-(trifluoromethyl)pyrazol-1-yl)cyclohexane-1-carboxylic acid], greater than 1e+07 pM. The figure for `O=C(CN(C(=O)c1cnn([C@H]2CC[C@H](C(=O)O)CC2)c1C(F)(F)F)C1CCCCC1)c1c(Cl)cncc1Cl` [Example 174, trans-4-(4-(cyclohexyl-(2-(3,5-dichloropyridin-4-yl)-2-oxoethyl)carbamoyl)-5-(trifluoromethyl)pyrazol-1-yl)cyclohexane-1-carboxylic acid] is 661000 pM. For `O=C(CN(C(=O)c1cnn([C@H]2CC[C@H](C(=O)O)CC2)c1C(F)(F)F)C1CCC(F)(F)CC1)c1c(Cl)cncc1Cl` [Example 175, trans-4-(4-((2-(3,5-dichloropyridin-4-yl)-2-oxoethyl)-(4,4-difluorocyclohexyl)carbamoyl)-5-(trifluoromethyl)pyrazol-1-yl)cyclohexane-1-carboxylic acid], the IC50 was 603000 pM. `CC(C)(C)O[C@H]1C[C@H](N(CC(=O)c2c(Cl)cncc2Cl)C(=O)c2cnn([C@H]3CC[C@H](C(=O)O)CC3)c2C(F)(F)F)C1` [Example 176, trans-4-(4-((2-(3,5-dichloropyridin-4-yl)-2-oxoethyl)-(3-((2-methylpropan-2-yl)oxy)cyclobutyl)carbamoyl)-5-(trifluoromethyl)pyrazol-1-yl)cyclohexane-1-carboxylic acid]: the IC50 is 2.57e+06 pM.
